The target in this test is Adenosylhomocysteinase (Homo sapiens, UniProt P23526). Briefly: Inhibition of human recombinant placental SAH.
Adenosylhomocysteinase, sequence (P23526 whole entry): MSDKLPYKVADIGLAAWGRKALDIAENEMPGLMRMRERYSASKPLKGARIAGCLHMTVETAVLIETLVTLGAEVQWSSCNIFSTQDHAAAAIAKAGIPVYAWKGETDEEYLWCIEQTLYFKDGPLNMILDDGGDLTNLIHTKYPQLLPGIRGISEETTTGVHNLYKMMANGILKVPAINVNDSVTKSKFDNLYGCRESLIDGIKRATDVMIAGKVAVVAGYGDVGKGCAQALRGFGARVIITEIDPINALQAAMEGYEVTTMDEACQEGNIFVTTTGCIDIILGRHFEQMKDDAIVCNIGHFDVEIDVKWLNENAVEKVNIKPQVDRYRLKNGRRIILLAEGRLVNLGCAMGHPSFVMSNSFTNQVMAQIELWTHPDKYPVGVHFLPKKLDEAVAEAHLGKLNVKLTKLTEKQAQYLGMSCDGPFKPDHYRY
As usually defined, the IC50 is the concentration at which inhibition is half-maximal. As for `NC[C@H]1O[C@@H](n2cnc3c(N)ncnc32)[C@H](O)[C@@H]1O`, the IC50 worked out at 75 µM. For `[N-]=[N+]=NC[C@H]1O[C@@H](n2cnc3c(N)ncnc32)[C@H](O)[C@@H]1O` the value was 28.9 µM. For `NC(=O)NC[C@H]1O[C@@H](n2cnc3c(N)ncnc32)[C@H](O)[C@@H]1O` the value was 7.53 µM.

The values are drawn from ChEMBL document CHEMBL1149568, “Design, synthesis, and molecular modeling studies of 5'-deoxy-5'-ureidoadenosine: 5'-ureido group as multiple hydrogen bonding donor in the active site of S-adenosylhomocysteine hydrolase” (Bioorg Med Chem Lett, 2007).
